Assay: wn = mass fraction of the nth substance listed
Conditions: Liquid, Pycnometric method, w2 = 0.5111

FC(F)C(F)(F)F [pentafluoroethane] + FCF
Conditions	mass density [kg/m3]
268.15 K, 3423 kPa	1190.3
269.15 K, 4259 kPa	1190.1
270.15 K, 5065 kPa	1189.9
270.15 K, 5095 kPa	1189.9
270.15 K, 5157 kPa	1190.1
271.15 K, 5903 kPa	1189.7
271.15 K, 5931 kPa	1189.7
271.15 K, 5992 kPa	1189.9
272.15 K, 6740 kPa	1189.6
272.15 K, 6767 kPa	1189.5
272.15 K, 6828 kPa	1189.7
273.15 K, 7576 kPa	1189.4
273.15 K, 7602 kPa	1189.3
273.15 K, 7662 kPa	1189.5
274.15 K, 8411 kPa	1189.2
274.15 K, 8437 kPa	1189.2
274.15 K, 8496 kPa	1189.3
275.15 K, 9245 kPa	1189
275.15 K, 9272 kPa	1189
275.15 K, 9328 kPa	1189.2
276.15 K, 10082 kPa	1188.8
276.15 K, 10107 kPa	1188.8
276.15 K, 10161 kPa	1189
277.15 K, 10917 kPa	1188.6
277.15 K, 10942 kPa	1188.6
277.15 K, 10993 kPa	1188.8
278.15 K, 11753 kPa	1188.4
278.15 K, 11776 kPa	1188.4
278.15 K, 11824 kPa	1188.6
279.15 K, 12587 kPa	1188.2
279.15 K, 12611 kPa	1188.2
279.15 K, 12657 kPa	1188.4
280.15 K, 13423 kPa	1188.1
280.15 K, 13444 kPa	1188.1
280.15 K, 13488 kPa	1188.2
281.15 K, 14258 kPa	1187.9
281.15 K, 14277 kPa	1187.9
281.15 K, 14319 kPa	1188.1
282.15 K, 15091 kPa	1187.7
282.15 K, 15110 kPa	1187.7
282.15 K, 15148 kPa	1187.9
283.15 K, 15926 kPa	1187.5
283.15 K, 15943 kPa	1187.6
283.15 K, 15978 kPa	1187.7
284.15 K, 16759 kPa	1187.4
284.15 K, 16775 kPa	1187.4
284.15 K, 16808 kPa	1187.6
285.15 K, 17592 kPa	1187.2
285.15 K, 17606 kPa	1187.2
285.15 K, 17637 kPa	1187.4
286.15 K, 18423 kPa	1187.1
286.15 K, 18437 kPa	1187.1
286.15 K, 18467 kPa	1187.2
287.15 K, 19253 kPa	1186.9
287.15 K, 19268 kPa	1186.9
287.15 K, 19297 kPa	1187.1
288.15 K, 20083 kPa	1186.7
288.15 K, 20097 kPa	1186.8
288.15 K, 20124 kPa	1186.9
289.15 K, 20914 kPa	1186.6
289.15 K, 20926 kPa	1186.6
289.15 K, 20951 kPa	1186.8
290.15 K, 21743 kPa	1186.4
290.15 K, 21755 kPa	1186.5
290.15 K, 21778 kPa	1186.6
291.15 K, 22571 kPa	1186.3
291.15 K, 22583 kPa	1186.3
291.15 K, 22607 kPa	1186.5
292.15 K, 23400 kPa	1186.2
292.15 K, 23410 kPa	1186.2
292.15 K, 23433 kPa	1186.4
293.15 K, 24226 kPa	1186
293.15 K, 24236 kPa	1186
293.15 K, 24257 kPa	1186.2
294.15 K, 25053 kPa	1185.9
294.15 K, 25062 kPa	1185.9
294.15 K, 25082 kPa	1186.1
295.15 K, 25878 kPa	1185.7
295.15 K, 25887 kPa	1185.7
295.15 K, 25903 kPa	1185.9
296.15 K, 5585 kPa	1097.9
296.15 K, 5620 kPa	1097.9
296.15 K, 5667 kPa	1097.9
296.15 K, 26704 kPa	1185.6
296.15 K, 26711 kPa	1185.6
296.15 K, 26725 kPa	1185.8
297.15 K, 6213 kPa	1097.7
297.15 K, 6246 kPa	1097.7
297.15 K, 6292 kPa	1097.7
297.15 K, 27528 kPa	1185.5
297.15 K, 27534 kPa	1185.5
297.15 K, 27546 kPa	1185.6
298.15 K, 6841 kPa	1097.5
298.15 K, 6872 kPa	1097.5
298.15 K, 6917 kPa	1097.6
298.15 K, 28352 kPa	1185.4
298.15 K, 28357 kPa	1185.3
298.15 K, 28366 kPa	1185.5
299.15 K, 7469 kPa	1097.4
299.15 K, 7499 kPa	1097.4
299.15 K, 7541 kPa	1097.4
299.15 K, 29176 kPa	1185.2
299.15 K, 29179 kPa	1185.2
299.15 K, 29186 kPa	1185.4
300.15 K, 8097 kPa	1097.2
300.15 K, 8124 kPa	1097.2
300.15 K, 8166 kPa	1097.2
300.15 K, 29998 kPa	1185.1
300.15 K, 29999 kPa	1185.1
300.15 K, 30003 kPa	1185.2
301.15 K, 8725 kPa	1097.1
301.15 K, 8750 kPa	1097.1
301.15 K, 8791 kPa	1097.1
302.15 K, 9353 kPa	1096.9
302.15 K, 9377 kPa	1096.9
302.15 K, 9417 kPa	1096.9
303.15 K, 9980 kPa	1096.8
303.15 K, 10003 kPa	1096.8
303.15 K, 10042 kPa	1096.8
304.15 K, 10607 kPa	1096.6
304.15 K, 10629 kPa	1096.6
304.15 K, 10667 kPa	1096.7
305.15 K, 11234 kPa	1096.5
305.15 K, 11256 kPa	1096.5
305.15 K, 11292 kPa	1096.5
306.15 K, 11861 kPa	1096.4
306.15 K, 11881 kPa	1096.4
306.15 K, 11917 kPa	1096.4
307.15 K, 12487 kPa	1096.2
307.15 K, 12507 kPa	1096.2
307.15 K, 12541 kPa	1096.2
308.15 K, 13114 kPa	1096.1
308.15 K, 13133 kPa	1096.1
308.15 K, 13165 kPa	1096.1
309.15 K, 13740 kPa	1095.9
309.15 K, 13758 kPa	1095.9
309.15 K, 13790 kPa	1095.9
310.15 K, 14367 kPa	1095.8
310.15 K, 14384 kPa	1095.8
310.15 K, 14414 kPa	1095.8
311.15 K, 14992 kPa	1095.6
311.15 K, 15009 kPa	1095.7
311.15 K, 15038 kPa	1095.7
312.15 K, 15618 kPa	1095.5
312.15 K, 15634 kPa	1095.5
312.15 K, 15662 kPa	1095.5
313.15 K, 16243 kPa	1095.4
313.15 K, 16259 kPa	1095.4
313.15 K, 16286 kPa	1095.4
314.15 K, 16869 kPa	1095.2
314.15 K, 16883 kPa	1095.2
314.15 K, 16910 kPa	1095.3
315.15 K, 17493 kPa	1095.1
315.15 K, 17507 kPa	1095.1
315.15 K, 17534 kPa	1095.1
316.15 K, 18118 kPa	1095
316.15 K, 18131 kPa	1095
316.15 K, 18158 kPa	1095
317.15 K, 18743 kPa	1094.9
317.15 K, 18755 kPa	1094.9
317.15 K, 18781 kPa	1094.9
318.15 K, 19367 kPa	1094.7
318.15 K, 19379 kPa	1094.7
318.15 K, 19404 kPa	1094.8
319.15 K, 19990 kPa	1094.6
319.15 K, 20003 kPa	1094.6
319.15 K, 20027 kPa	1094.6
320.15 K, 20613 kPa	1094.5
320.15 K, 20627 kPa	1094.5
320.15 K, 20649 kPa	1094.5
321.15 K, 21236 kPa	1094.4
321.15 K, 21250 kPa	1094.4
321.15 K, 21272 kPa	1094.4
322.15 K, 21858 kPa	1094.2
322.15 K, 21873 kPa	1094.3
322.15 K, 21894 kPa	1094.3
323.15 K, 22480 kPa	1094.1
323.15 K, 22495 kPa	1094.1
323.15 K, 22516 kPa	1094.2
324.15 K, 23103 kPa	1094
324.15 K, 23117 kPa	1094
324.15 K, 23137 kPa	1094
325.15 K, 23725 kPa	1093.9
325.15 K, 23738 kPa	1093.9
325.15 K, 23758 kPa	1093.9
326.15 K, 24347 kPa	1093.8
326.15 K, 24361 kPa	1093.8
326.15 K, 24379 kPa	1093.8
327.15 K, 24970 kPa	1093.7
327.15 K, 24981 kPa	1093.7
327.15 K, 25000 kPa	1093.7
328.15 K, 25590 kPa	1093.6
328.15 K, 25601 kPa	1093.6
328.15 K, 25620 kPa	1093.6

From the NIST ThermoML archive (doi:10.1007/s10765-008-0535-5)
